Data published in patent US10253002B2, “Compounds and methods of treating infections” (Neoculi Pty Ltd., priority 2013, dated 2019).
In brackets after ≈: the same amount, converted by molar mass. Where two headings read alike, the source gives them in different places. Each block holds one molecule with its values, some of them ahead of it.

How the values were obtained:
VRE = test: Broth microdilution MIC, Example 7 (NCL812 and analogues); type: cell-based, Enterococcus spp.; conditions: for activity against VRE among analogues: MIC testing, two VRE strains; for VRE / MIC: bioassay ranking, VRE; for MIC: Enterococcus, read-out: VRE
Outline: (§1)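 CLSI broth microdilution against two MRSA and two VRE strains, tested in duplicate with a third run if results differed by more than one two-fold dilution.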

MRSA = test: as above; type: cell-based, Staphylococcus aureus; conditions: for activity against MRSA among analogues: MIC testing, two MRSA strains; for MRSA / MIC: bioassay ranking, MRSA; for MIC: Staphylococcus aureus, read-out: MRSA
Outline: as §1

[1] = Bioassay ranking of the analogues tested; conditions: M + R (MRSA and VRE combined)
S. pneumoniae isolates = test: Disk diffusion susceptibility (CLSI/EUCAST), Example 5; type: cell-based, Streptococcus pneumoniae
Method: Isolate susceptibility to 12 different antimicrobials (Table 16) was determined by CLSI and European Committee on Antimicrobial Susceptibility Testing (EUCAST) methods. Antimicrobials were selected based upon the CLSI and EUCAST guidelines. Standardised bacterial suspensions were spread onto MHSBA using a sterile cotton swab. Bacterial suspensions from of Streptococcus pneumoniae were standardised to an OD6O0 between 0.08 and 0.1 using a spectrophotometer and then diluted 1:20. Bacterial colonies were taken from an O/N horse blood agar plate. To ensure the purity of the 1:20 bacterial suspension, 50 μL was spread plated onto horse blood agar and incubated O/N at 37° C. with 5% CO2. The CFU was calculated and compared to the initial plate counts. Antibiotic disks (Purchased from Sigma Aldrich) were placed using a disk dispenser (Purchased from Oxoid) according to CLSI standards. MHSBA plates were incubated for 16 h-24 h at 37° C. in 5% CO2. Zones of complete inhibition were measured in triplicate to the nearest millimeter using a ruler on natural light-reflected growth, and the mode was represented as the diameter for each isolate. Pneumococcal isolates were categorised as sensitive, intermediate (I) or resistant (R) by CLSI standards and quality control (QC) ranges (Table 16).

[2] = test system: Staphylococcus pseudintermedius isolates (MSSP and MRSP); test: Disk diffusion and Epsilometer susceptibility testing, Example 6; type: cell-based; conditions: for MIC: Staphylococcus pseudintermedius
[3] = test system: S. aureus isolates (HA-MRSA, CA-MRSA, methicillin-susceptible staphylococci); test: Kirby-Bauer disc diffusion resistotyping, Example 4; type: cell-based, Staphylococcus aureus
Method: Antibiotic-susceptibility profiling of the isolate collection was undertaken using Kirby-Bauer disc diffusion, as recommended by the Clinical and Laboratory Standards Institute (CLSI) on Mueller-Hinton agar. Isolates were grown overnight on SBA at 37° C. Colonies were suspended in physiological saline. Turbidity was adjusted to a 0.5 McFarland standard and suspensions were spread over the medium. Antibiotic discs according to Table 9 below were transferred onto the inoculated medium and analysed after 24 h incubation at 37° C.

SMILES: N=C(NN=Cc1ccc(Cl)cc1N)NN=Cc1ccc(Cl)cc1N [NCL169]
activity against VRE among analogues (VRE): greatest activity
VRE (VRE): 32 µg/mL
activity against MRSA among analogues (MRSA): greatest activity
M + R [1]: 40 µg/mL

SMILES: Cl.[H]/N=C(/N)NN=C(CNN)c1ccc(Cl)cc1 [NCL190]
activity against VRE among analogues (VRE): greatest activity
VRE (VRE): 32 µg/mL
activity against MRSA among analogues (MRSA): greatest activity
MRSA (MRSA): 24 µg/mL
M + R [1]: 28 µg/mL

SMILES: Cl.N=C(NN=C(CO)c1ccc(Cl)cc1)NN=C(CO)c1ccc(Cl)cc1 [NCL177]
activity against VRE among analogues (VRE): greatest activity
VRE (VRE): 6 µg/mL
activity against MRSA among analogues (MRSA): greatest activity
MRSA (MRSA): 8 µg/mL
M + R [1]: 7 µg/mL

SMILES: Cc1onc(-c2ccccc2)c1C(=O)N[C@@H]1C(=O)N2[C@@H]1SC(C)(C)[C@@H]2C(=O)O [Oxacillin]
disk diffusion zone diameter (S. pneumoniae isolates; A66.1): 28 mm
disk diffusion zone diameter (S. pneumoniae isolates; D39): 26 mm
disk diffusion zone diameter (S. pneumoniae isolates; EF3030): 18 mm
disk diffusion zone diameter (S. pneumoniae isolates; L82016): 29 mm
disk diffusion zone diameter (S. pneumoniae isolates; P9): 26 mm
disk diffusion zone diameter (S. pneumoniae isolates; P21): 28 mm
disk diffusion zone diameter (S. pneumoniae isolates; TIGR4): 26 mm
disk diffusion zone diameter (S. pneumoniae isolates; WCH16): 30 mm
disk diffusion zone diameter (S. pneumoniae isolates; WCH43): 26 mm
disk diffusion zone diameter (S. pneumoniae isolates; WCH46): 27 mm
disk diffusion zone diameter (S. pneumoniae isolates; WCH57): 32 mm
disk diffusion zone diameter (S. pneumoniae isolates; WCH77): 28 mm
disk diffusion zone diameter (S. pneumoniae isolates; WCH86): 34 mm
disk diffusion zone diameter (S. pneumoniae isolates; WCH89): 29 mm
disk diffusion zone diameter (S. pneumoniae isolates; WCH92): 25 mm
disk diffusion zone diameter (S. pneumoniae isolates; WCH137): 29 mm
disk diffusion zone diameter (S. pneumoniae isolates; WCH158): 28 mm
disk diffusion zone diameter (S. pneumoniae isolates; WCH184): 11 mm
disk diffusion zone diameter (S. pneumoniae isolates; WCH211): 25 mm
disk diffusion zone diameter (S. pneumoniae isolates; WU2): 28 mm
disc diffusion zone, all MRSP isolates resistant ([2]; 13 MRSP isolates): ≤ 17 mm
MIC ([2]; 13 MRSP isolates, read-out: E-test MIC, all MRSP isolates resistant): ≥ 0.5 µg/mL
MIC ([2]; isolate S1P1, read-out: Etest MIC): > 256 µg/mL
MIC ([2]; isolate S2P2, read-out: Etest MIC): > 256 µg/mL
MIC ([2]; isolate S3P3, read-out: Etest MIC): > 256 µg/mL
MIC ([2]; isolate S4P4, read-out: Etest MIC): 2 µg/mL (≈ 4.98 µM)
MIC ([2]; isolate S5P5, read-out: Etest MIC): 4 µg/mL (≈ 9.96 µM)
MIC ([2]; isolate S6P6, read-out: Etest MIC): > 256 µg/mL
MIC ([2]; isolate S7P7, read-out: Etest MIC): > 256 µg/mL
MIC ([2]; isolate S8P8, read-out: Etest MIC): > 256 µg/mL
MIC ([2]; isolate S9P9, read-out: Etest MIC): 4 µg/mL (≈ 9.96 µM)
MIC ([2]; isolate S10P10, read-out: Etest MIC): > 256 µg/mL
MIC ([2]; isolate S11P11, read-out: Etest MIC): > 256 µg/mL
MIC ([2]; isolate S12P12, read-out: Etest MIC): 1.5 µg/mL (≈ 3.74 µM)
MIC ([2]; isolate S13P13, read-out: Etest MIC): 0.125 µg/mL (≈ 0.311 µM)
MIC ([2]; isolate S14P14, read-out: Etest MIC): 0.25 µg/mL (≈ 0.623 µM)
MIC ([2]; isolate S15P15, read-out: Etest MIC): 0.25 µg/mL (≈ 0.623 µM)
MIC ([2]; isolate S16P16, read-out: Etest MIC): 0.19 µg/mL (≈ 0.473 µM)
MIC ([2]; isolate S17P17, read-out: Etest MIC): 0.25 µg/mL (≈ 0.623 µM)
MIC ([2]; isolate S18P18, read-out: Etest MIC): 0.25 µg/mL (≈ 0.623 µM)
MIC ([2]; isolate S19P19, read-out: Etest MIC): 0.25 µg/mL (≈ 0.623 µM)
MIC ([2]; isolate S20P20, read-out: Etest MIC): 0.25 µg/mL (≈ 0.623 µM)
MIC ([2]; isolate S21P21, read-out: Etest MIC): 0.125 µg/mL (≈ 0.311 µM)
MIC ([2]; isolate S22P22, read-out: Etest MIC): 0.25 µg/mL (≈ 0.623 µM)
MIC ([2]; isolate S23P23, read-out: Etest MIC): 1.5 µg/mL (≈ 3.74 µM)
ZD ([2]; isolate S1P1): 0 mm
ZD, Adl ([2]; isolate S1P1): 0 mm
ZD ([2]; isolate S2P2): 0 mm
ZD, Adl ([2]; isolate S2P2): 0 mm
ZD ([2]; isolate S3P3): 0 mm
ZD, Adl ([2]; isolate S3P3): 0 mm
ZD ([2]; isolate S4P4): 0 mm
ZD, Adl ([2]; isolate S4P4): 0 mm
ZD ([2]; isolate S5P5): 0 mm
ZD, Adl ([2]; isolate S5P5): 0 mm
ZD ([2]; isolate S6P6): 0 mm
ZD, Adl ([2]; isolate S6P6): 0 mm
ZD ([2]; isolate S7P7): 0 mm
ZD, Adl ([2]; isolate S7P7): 0 mm
ZD ([2]; isolate S8P8): 0 mm
ZD, Adl ([2]; isolate S8P8): 0 mm
ZD ([2]; isolate S9P9): 0 mm
ZD, Adl ([2]; isolate S9P9): 0 mm
ZD ([2]; isolate S10P10): 0 mm
ZD, Adl ([2]; isolate S10P10): 0 mm
ZD ([2]; isolate S11P11): 0 mm
ZD, Adl ([2]; isolate S11P11): 0 mm
ZD ([2]; isolate S12P12): 13 mm
ZD, Adl ([2]; isolate S12P12): 16 mm
ZD ([2]; isolate S13P13): 26 mm
ZD, Adl ([2]; isolate S13P13): 36 mm
ZD ([2]; isolate S14P14): 22 mm
ZD, Adl ([2]; isolate S14P14): 29 mm
ZD ([2]; isolate S15P15): 22 mm
ZD, Adl ([2]; isolate S15P15): 25 mm
ZD ([2]; isolate S16P16): 26 mm
ZD, Adl ([2]; isolate S16P16): 34 mm
ZD ([2]; isolate S17P17): 22 mm
ZD, Adl ([2]; isolate S17P17): 26 mm
ZD ([2]; isolate S18P18): 22 mm
ZD, Adl ([2]; isolate S18P18): 30 mm
ZD ([2]; isolate S19P19): 25 mm
ZD, Adl ([2]; isolate S19P19): 32 mm
ZD ([2]; isolate S20P20): 23 mm
ZD, Adl ([2]; isolate S20P20): 30 mm
ZD ([2]; isolate S21P21): 27 mm
ZD, Adl ([2]; isolate S21P21): 37 mm
ZD ([2]; isolate S22P22): 21 mm
ZD, Adl ([2]; isolate S22P22): 26 mm
ZD ([2]; isolate S23P23): 13 mm
ZD, Adl ([2]; isolate S23P23): 14 mm
isolates resistant (Kirby-Bauer disc diffusion) ([3]; CA-MRSA (n = 10)): 10.00%
isolates resistant (Kirby-Bauer disc diffusion) ([3]; HA-MRSA (n = 10)): 80.00%
isolates resistant (Kirby-Bauer disc diffusion) ([3]; Methicillin-susceptible staphylococci (n = 10)): 0.00%
resistant isolates, number (percentage) ([3]; Unclassified (n = 2), Overall): 2 (100%)
Total isolates resistant (Kirby-Bauer disc diffusion) ([3]; all isolates (n = 30)): 30.00%
resistant isolates, number (percentage) ([3]; mec gene complex A (n = 4), Overall): 4 (100%)
resistant isolates, number (percentage) ([3]; mec gene complex A (n = 4), SCCmec type II): 3 (100%)
resistant isolates, number (percentage) ([3]; mec gene complex A (n = 4), SCCmec type III): 1 (100%)
resistant isolates, number (percentage) ([3]; mec gene complex B (n = 10), Overall): 2 (20%)
resistant isolates, number (percentage) ([3]; mec gene complex B (n = 10), SCCmec type I): 1 (50%)
resistant isolates, number (percentage) ([3]; mec gene complex B (n = 10), SCCmec type IV): 1 (12.5%)
resistant isolates, number (percentage) ([3]; mec gene complex C2 (n = 4), Overall): 1 (25%)
resistant isolates, number (percentage) ([3]; mec gene complex C2 (n = 4), SCCmec type V): 1 (25%)

SMILES: C/C(=N\NC(=N)N/N=C(\C)c1ccc(Br)cc1)c1ccc(Br)cc1.Cl [NCL155]
activity against VRE among analogues (VRE): greatest activity
VRE (VRE): 12 µg/mL
activity against MRSA among analogues (MRSA): greatest activity
MRSA (MRSA): 8 µg/mL
M + R [1]: 10 µg/mL

SMILES: Cl.N=C(NN=Cc1ccc(Cl)cc1O)NN=Cc1ccc(Cl)cc1O [NCL174]
activity against VRE among analogues (VRE): greatest activity
VRE (VRE): 18 µg/mL
activity against MRSA among analogues (MRSA): greatest activity
MRSA (MRSA): 32 µg/mL
M + R [1]: 25 µg/mL

MIC (VRE): 2.5 µg/mL
MIC (MRSA): 2 µg/mL
SMILES: Cl.N=C(NN=Cc1ccc(Cl)cc1N)NN=Cc1ccc(Cl)cc1N [NCL157, 2,2′-bis[(2-amino-4-chlorophenyl)methylene]carbonimidic Dihydrazide Hydrochloride]
activity against VRE among analogues (VRE): greatest activity
activity against MRSA among analogues (MRSA): greatest activity
M + R [1]: 2.25 µg/mL

SMILES: Cl.N=C(NN=Cc1ccc(F)c(F)c1)NN=Cc1ccc(F)c(F)c1 [NCL123]
activity against VRE among analogues (VRE): greatest activity
VRE (VRE): 4 µg/mL
activity against MRSA among analogues (MRSA): greatest activity
MRSA (MRSA): 15 µg/mL
M + R [1]: 9.5 µg/mL

SMILES: CC(C)c1ccc(/C=N/NC(=N)N/N=C/c2ccc(C(C)C)cc2)cc1.Cl [NCL120]
activity against VRE among analogues (VRE): greatest activity
VRE (VRE): 5 µg/mL
activity against MRSA among analogues (MRSA): greatest activity
MRSA (MRSA): 7 µg/mL
M + R [1]: 6 µg/mL

MIC (VRE): 4 µg/mL (≈ 9.99 µM)
MIC (MRSA): 2 µg/mL (≈ 5 µM)
SMILES: Nc1nc(N/N=C/c2ccc(Cl)cc2)cc(N/N=C/c2ccc(Cl)cc2)n1 [NCL179, 4,6-bis(2-((E)-4-chlorobenzylidene)hydrazinyl)pyrimidin-2-amine]
activity against VRE among analogues (VRE): greatest activity
activity against MRSA among analogues (MRSA): greatest activity
M + R [1]: 3 µg/mL

SMILES: CC(=NNC(=N)NN=C(C)c1ccccc1)c1ccccc1.Cl [NCL143]
activity against VRE among analogues (VRE): greatest activity
VRE (VRE): 8 µg/mL
activity against MRSA among analogues (MRSA): greatest activity
MRSA (MRSA): 16 µg/mL
M + R [1]: 12 µg/mL

SMILES: CCCc1ccc(C=NNC(=N)NN=Cc2ccc(CCC)cc2)cc1.Cl [NCL121]
activity against VRE among analogues (VRE): greatest activity
VRE (VRE): 28 µg/mL
activity against MRSA among analogues (MRSA): greatest activity
MRSA (MRSA): 32 µg/mL
M + R [1]: 30 µg/mL
